The text below walks through data of US20100216755A1, “ANTI-TUMOR AGENT” (AJINOMOTO CO. INC, priority 2001, published 2010).

Data set [1] has as its system Malignant fibrous histiocytoma MT-9. The data set can be described thus: Anti-tumor effect, MT-9/F344 system (tumor volume, I.R.). The settings on record: for I.R.(%): 3 times every 3 days. The class given is in vivo, rat (F344). As for the experimental part:
• Rat tumor cell line (transplant rat strain); • Malignant fibrous histiocytoma MT-9 (F344, male)
MT-9 was obtained as in-vitro cultured cells, which were cultured in RPMI1640 medium containing 10% FBS. 10^7 or more of the MT-9 cells were subcutaneously transplanted into the back of rats. After tumor formation, tumor slices (about 100 mg) were inoculated subcutaneously into rats using cannula for serial passage.
The MT-9/F344 system: Tumors serially passed by the subcutaneous transplantation were extirpated. After binding tissues and necrosis portions in the tumors had been removed, tumor tissues were minced with scissors and made pasty. About 50-100 mg of the tumor tissues were subcutaneously transplanted into the backs of F344 rats (day 0).
After the tumors were multiplied to a measurable quantity (about 1-2 weeks later), the tumor size (tumor volume) and body weight were measured and divided into tumor size-and body weight-matched groups.
The tumor sizes (tumor volumes) and body weights were measured every day from the next day to about the third day following completion of administration. Incidentally, the tumor volume was calculated according to the following formula:
Tumor volume (mm^3)=[…].
T/C(%)=[(tumor volume for the medicine administered group)÷(tumor volume for the control group)]×100
The influence of Dexamethasone on the pharmaceutical effect of AC-7700 was investigated using F344 rats, subcutaneously transplanted MT-9. AC-7700 was administered at a dosage of 10 mg/kg, and 1 mg/kg of Dexamethasone was administered on the day before the AC-7700 administration. Both the medical agents were 3 times administered every 3 days.

A short description of data set [2]: Maximum tolerable dose in CDF1 mice. The class given is in vivo. The settings on record: AC-7700 s.c. 3 times every 3 days, CDF1 mice (female).

Counter-ions that a name gives are not always drawn. Marks after values point to notes of the source that are not given here.

For the molecule `COc1ccc(/C=C\c2cc(OC)c(OC)c(OC)c2)cc1NC(=O)[C@@H](N)CO` [AC-7700, (Z)—N-[2-methoxy-5-[2-(3,4,5-trimethoxyphenyl)vinyl]phenyl]-L-serinamide hydrochloride], the tumor growth entry in data set [1] (AC-7700 10 mg/kg as single agent, F344 rats, s.c. MT-9) is on record as “significantly inhibited tumor growth”; in data set [1] (AC-7700 10 mg/kg in combination with Dexamethasone 1 mg/kg, no significant difference from AC-7700 alone (Scheffe's F test)) it was “inhibited tumor growth in the same manner”. Further, the “I.R.(%)” value in data set [1] (AC-7700 10 mg/kg/day alone (DEX 0), F344 rats, s.c. MT-9) was 84** %; in data set [1] (AC-7700 10 mg/kg/day combined with DEX 1 mg/kg/day given the day before, F344 rats, s.c. MT-9), 72** %. Further, the “maximum tolerable dose of AC-7700” value in data set [2] (with Dexamethasone 5 mg/kg/day i.v. on the day before and the day of AC-7700) was “more than 90 mg/kg/day”; in data set [2] (without Dexamethasone) it was 43.6 mg/kg/day.
